Laboratory results as given in ChEMBL document CHEMBL1201862, “PubChem BioAssay data set” (2004).
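Grown in 96-well plates, cells were treated for 48 hours with each compound at five concentrations. Insufficient inhibition: endpoint recorded as highest concentration tested. GI50 = concentration required for 50% inhibition of growth.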 Calls of active or inactive are those of the source. No stated cut-off is given here; in the data, active = GI50 up to about 1.1 µM and inactive = higher.

Assays:
Experiment in all cases: NCI tumour cell line growth inhibition, 48 h
MCF7 = tested on: MCF7
MDA-N = tested on: MDA-N
UACC-62 = tested on: UACC-62
SF-295 = tested on: SF-295
HOP-92 = tested on: HOP-92
SK-OV-3 = tested on: SK-OV-3
IGROV-1 = tested on: IGROV-1
HOP-62 = tested on: HOP-62
UACC-257 = tested on: UACC-257
SNB-19 = tested on: SNB-19
OVCAR-3 = tested on: OVCAR-3
SR = tested on: SR
COLO 205 = tested on: COLO 205
OVCAR-8 = tested on: OVCAR-8
MDA-MB-231 = tested on: MDA-MB-231
PC-3 = tested on: PC-3
HCT-116 = tested on: HCT-116
SF-539 = tested on: SF-539
TK-10 = tested on: TK-10
SK-MEL-28 = tested on: SK-MEL-28

Row | SMILES | GI50 (MCF7) | GI50 (MDA-N) | GI50 (UACC-62) | GI50 (SF-295) | GI50 (HOP-92) | GI50 (SK-OV-3) | GI50 (IGROV-1) | GI50 (HOP-62) | GI50 (UACC-257) | GI50 (SNB-19) | GI50 (OVCAR-3) | GI50 (SR) | GI50 (COLO 205) | GI50 (OVCAR-8) | GI50 (MDA-MB-231) | GI50 (PC-3) | GI50 (HCT-116) | GI50 (SF-539) | GI50 (TK-10) | GI50 (SK-MEL-28)
1 | CCc1nnc(S)n1/N=C\c1ccc(-c2ccccc2Cl)o1 | 32 µM (inactive) | 20.5 µM (inactive) | 40.6 µM (inactive) | 46.2 µM (inactive) | 33.2 µM (inactive) | 56.9 µM (inactive) | 38.7 µM (inactive) | 90.2 µM (inactive) | 53.5 µM (inactive) | 45.3 µM (inactive) | 40.6 µM (inactive) | 19.6 µM (inactive) | 31.3 µM (inactive) | 24.3 µM (inactive) | 42.2 µM (inactive) | 37.4 µM (inactive) | 23.8 µM (inactive) | 23 µM (inactive) | 43.7 µM (inactive) | 
2 | COc1cc(C2SCC(=O)N2c2cc(Cl)c(Cl)cc2Cl)cc(OC)c1OC (centres undefined) | 37.7 µM (inactive) | 25.3 µM (inactive) | 22.2 µM (inactive) | 49.8 µM (inactive) | 28.6 µM (inactive) | 40.7 µM (inactive) | 62.4 µM (inactive) |  | 36.8 µM (inactive) | 51.8 µM (inactive) | 22.2 µM (inactive) | 26.4 µM (inactive) | 39.5 µM (inactive) | 66.5 µM (inactive) | > 100 µM (inactive) | 62.8 µM (inactive) | 38.3 µM (inactive) | 43.1 µM (inactive) | > 100 µM (inactive) | 84.5 µM (inactive)
3 | COc1ccc2c(c1)c1c(C)c3cnccc3c(C)c1n2CCCN | 0.251 µM (active) | 0.114 µM (active) | 0.41 µM (active) | 0.257 µM (active) | 0.0968 µM (active) | 0.415 µM (active) | 0.313 µM (active) | 0.444 µM (active) | 0.518 µM (active) | 0.29 µM (active) | 0.453 µM (active) | < 0.01 µM (active) | 0.177 µM (active) | 0.178 µM (active) | 0.145 µM (active) | 0.0715 µM (active) | 0.0556 µM (active) | 0.405 µM (active) | 0.248 µM (active) | 0.458 µM (active)
4 | O=C1CSC(c2ccc(Cl)cc2)N1c1ccc(Oc2ccc(Cl)cc2)c(Cl)c1 (centres undefined) | 21.9 µM (inactive) | 14.5 µM (inactive) | 15.4 µM (inactive) | 16.3 µM (inactive) | 15.7 µM (inactive) | 17.6 µM (inactive) | 14.8 µM (inactive) | 21.3 µM (inactive) | 18.2 µM (inactive) | 15.6 µM (inactive) | 15 µM (inactive) | 18.4 µM (inactive) | 18.2 µM (inactive) | 17.5 µM (inactive) | 16.4 µM (inactive) | 15.2 µM (inactive) | 15.7 µM (inactive) | 14.6 µM (inactive) | 18.7 µM (inactive) | 17.7 µM (inactive)
5 | COc1nc2ccc(COc3ccc(C(=O)NC(CCC(=O)O)C(=O)O)cc3)cc2nc1OC (centres undefined) | > 10 µM (inactive) | > 10 µM (inactive) | > 10 µM (inactive) | > 10 µM (inactive) | > 10 µM (inactive) | > 10 µM (inactive) | > 10 µM (inactive) | > 10 µM (inactive) | > 10 µM (inactive) | > 10 µM (inactive) | > 10 µM (inactive) | > 10 µM (inactive) | > 10 µM (inactive) |  | > 10 µM (inactive) | > 10 µM (inactive) |  | > 10 µM (inactive) | > 10 µM (inactive) | > 10 µM (inactive)
6 | CCOC(=O)/C=C/C1(CCOC(C)=O)CCCCC1 | > 10 µM (inactive) | > 10 µM (inactive) | > 10 µM (inactive) | > 10 µM (inactive) | > 10 µM (inactive) | > 10 µM (inactive) | > 10 µM (inactive) | > 10 µM (inactive) | > 10 µM (inactive) | > 10 µM (inactive) | > 10 µM (inactive) | > 10 µM (inactive) | > 10 µM (inactive) | > 10 µM (inactive) | > 10 µM (inactive) | > 10 µM (inactive) | > 10 µM (inactive) | > 10 µM (inactive) | > 10 µM (inactive) | > 10 µM (inactive)
7 | CN1CCOC(c2ccc(Cl)cc2)O1 (centres undefined) | > 100 µM (inactive) | > 100 µM (inactive) | > 100 µM (inactive) | > 100 µM (inactive) | > 100 µM (inactive) | > 100 µM (inactive) | > 100 µM (inactive) | > 100 µM (inactive) | > 100 µM (inactive) | > 100 µM (inactive) | > 100 µM (inactive) | > 100 µM (inactive) | > 100 µM (inactive) | > 100 µM (inactive) | > 100 µM (inactive) | > 100 µM (inactive) |  | > 100 µM (inactive) | > 100 µM (inactive) | > 100 µM (inactive)
8 | OCc1cc2c(ccc3sc4ccc5sc6ccc7ncccc7c6c5c4c32)s1 | 17.8 µM (inactive) | 10.3 µM (inactive) | 7.45 µM (inactive) | 12.5 µM (inactive) | 29.6 µM (inactive) | 18.4 µM (inactive) | 7.29 µM (inactive) | 12.7 µM (inactive) | 13.6 µM (inactive) | 11.3 µM (inactive) | 16.9 µM (inactive) | 10.5 µM (inactive) | 2.72 µM (inactive) | 12.1 µM (inactive) | 4.17 µM (inactive) | 5.93 µM (inactive) | 8.47 µM (inactive) | 14.4 µM (inactive) | 31.8 µM (inactive) | 27.2 µM (inactive)
9 | CC(O)C1(CNc2cc(Cl)nc(N)n2)CCCCC1 (centres undefined) | 82.2 µM (inactive) | > 100 µM (inactive) | > 100 µM (inactive) | > 100 µM (inactive) | 69.3 µM (inactive) | > 100 µM (inactive) | > 100 µM (inactive) | > 100 µM (inactive) | 84.9 µM (inactive) | > 100 µM (inactive) | > 100 µM (inactive) | 66.1 µM (inactive) | > 100 µM (inactive) | > 100 µM (inactive) | > 100 µM (inactive) | 65.6 µM (inactive) | > 100 µM (inactive) | > 100 µM (inactive) | > 100 µM (inactive) | > 100 µM (inactive)
10 | COc1cc([C@@H]2c3cc4c(cc3[C@@H](/N=C/c3ccc(C(=O)O[C@@H](C(=O)O[C@H]5C[C@@]6(O)[C@@H](OC(=O)c7ccccc7)[C@@H]7[C@]8(OC(C)=O)CO[C@@H]8C[C@H](O)[C@@]7(C)C(=O)[C@H](OC(C)=O)C(=C5C)C6(C)C)[C@@H](NC(=O)c5ccccc5)c5ccccc5)cc3)[C@H]3COC(=O)[C@H]23)OCO4)cc(OC)c1O | 0.0128 µM (active) | 0.00589 µM (active) | 0.0815 µM (active) | 0.171 µM (active) | > 36.4 µM (inactive) | 0.0785 µM (active) | 0.19 µM (active) | 0.246 µM (active) | 0.109 µM (active) | 1.22 µM (inactive) | 0.00893 µM (active) | < 0.005 µM (active) | 0.00891 µM (active) | 0.356 µM (active) | 0.116 µM (active) | 0.0138 µM (active) | 0.027 µM (active) | 0.0141 µM (active) | 14.1 µM (inactive) | > 37.1 µM (inactive)
11 | CNC1(c2cc3ccccc3s2)CCCCC1 | 29.5 µM (inactive) | 19.9 µM (inactive) | 20.6 µM (inactive) | 25 µM (inactive) | 14.3 µM (inactive) | 39 µM (inactive) | 19.1 µM (inactive) | 33.9 µM (inactive) | 18.2 µM (inactive) | 41.8 µM (inactive) | 28.2 µM (inactive) | 25 µM (inactive) | 18.9 µM (inactive) | 37.2 µM (inactive) | 23.2 µM (inactive) | 18.1 µM (inactive) | 41.5 µM (inactive) | 20.4 µM (inactive) | 44.2 µM (inactive) | 
12 | N#CC(/N=N/c1ccccc1)c1nc2ccccc2o1 (centres undefined) | 59.3 µM (inactive) | 95.7 µM (inactive) | 37.7 µM (inactive) | 17.4 µM (inactive) | 15 µM (inactive) | 23.7 µM (inactive) | 16.1 µM (inactive) | 20.3 µM (inactive) | > 100 µM (inactive) | 30.7 µM (inactive) | 25.4 µM (inactive) | 36.8 µM (inactive) | 19.3 µM (inactive) | 24.5 µM (inactive) | 20.8 µM (inactive) | 29.5 µM (inactive) | 21.7 µM (inactive) | 14.7 µM (inactive) | 24.5 µM (inactive) | > 100 µM (inactive)
13 | Cc1ccc(OCC2OC(n3cnc4nc(N)nc(Cl)c43)CC2Oc2ccc(C)cc2)cc1 (centres undefined) | 15.1 µM (inactive) | 11.9 µM (inactive) | 27.5 µM (inactive) | 27.6 µM (inactive) | 17.3 µM (inactive) | 33.9 µM (inactive) | 18.5 µM (inactive) | 22.3 µM (inactive) | 34.1 µM (inactive) | 11.8 µM (inactive) | 18.6 µM (inactive) | 6.71 µM (inactive) | 16.8 µM (inactive) | 15.7 µM (inactive) | 34.6 µM (inactive) | 21.9 µM (inactive) | 22 µM (inactive) | 23.3 µM (inactive) | 31.1 µM (inactive) | 36 µM (inactive)
14 | CCCCCOC(=O)c1cc2cc(CCl)ccc2oc1=O | 10.4 µM (inactive) | 2.92 µM (inactive) | 1.64 µM (inactive) | 13.7 µM (inactive) | 2.62 µM (inactive) | 16.9 µM (inactive) | 10.3 µM (inactive) | 8.28 µM (inactive) | 1.09 µM (active) | 18.7 µM (inactive) | 2.82 µM (inactive) | 8.07 µM (inactive) | 2.36 µM (inactive) | 17.9 µM (inactive) | 16.5 µM (inactive) | 4.07 µM (inactive) | 10.1 µM (inactive) | 27.6 µM (inactive) | 0.957 µM (active) | 6.49 µM (inactive)
